Series [1] is described as follows: T1 relaxation (relaxivity) in water. The class given is physicochemical. From the text: (§1) T1 relaxation (1/mmol·sec) is
(§2) The T1 relaxation (1/mmol·sec) is
(§3) The T1 relaxation (1/mmol·sec) amounts to
(§4) The T1 relaxation (1mmol·sec) is […]

Series [2] can be described thus: T1 relaxation (relaxivity) in plasma. The class given is physicochemical.
Text: as §1, §2, §3, §4

Series [3] has as its system rats. Put plainly: in vivo MRI in rats, T1-weighted spin echo, liver/stomach/osteogenic sarcoma. The arrangement: species or system rat (female, Lew/Mol). The note with it: 0.1 mmol Gd/kg i.v.; for enhancement of the stomach: ranking among the three compounds. From the text: The test animals were female rats of the strain Lew/Mol weighing 160-180 g. Prior to imaging, the animals were anesthetized ("Rompun"+"Ketavet") and provided with a catheter in the caudel vein to administer the contrast medium. Imaging took place in an MRI experimental device by General Electric (field strength 2 tesla). First of all, the images (7, 9, 11) were made without contrast medium with a T1 -weighted spin echo sequence (TR=400 msec, TE=20 msec, axial section plane, layer thickness 3 mm). The liver appears in each case with the normal signal intensity; the stomach is darker in tendency than the liver. […] This is due to feed residues, the feed containing manganese in relatively high concentrations (at the time of the test, the animals had been fasting for 6 hours). Animal 3 had been implanted with an osteogenic sarcoma three weeks previously; this sarcoma was of equal contrast in the blank image and could not be defined. The administration of contrast medium took place via the venous catheter with a dose of 0.1 mmol Gd/kg (concentration of the solutions 0.05 mmol Gd/ml in 0.9% NaCl) for all 3 compounds.

Series [4] relates to rats. Briefly: in vivo NMR imaging in rat with Brown Pearce tumor (spin echo, 2 tesla). Details: species or system rat (male hairless, Lew/Mol). The following applies: 0.06 mmol/kg i.v. An excerpt:
Spin echo scans were made with the NMR tomograph (CSI 2 T) at 2 tesla (TR time of 400 ms and TE time of 20 ms).
The contrast medium was administrated intravenously into a caudal vein of a male hairless rat (Lew/Mol) weighing 190 g, in a dose of 0.06 mmol/kg.

In series [5] the test system is rats. The note with it: at this point in time after administration; no own data shown; cited from earlier work.

In the case of “Gadolinium Complex of 3,6,9-Triaza-3,6,9-tris-(carboxymethyl)-4-benzyloxymethylundecanedioic Acid [Example 5(c)]”, the T1 relaxation in series [1] was 4.39 ± 0.12 mmol⁻¹ s⁻¹; in series [2] it was 6.31 ± 0.15 mmol⁻¹ s⁻¹.

Turning to `CCCCOc1ccc(CC(CN(CCN(CC(=O)[O-])CC(=O)[O-])CC(=O)[O-])N(CC(=O)[O-])CC(=O)[O-])cc1.[Gd+3].[Na+].[Na+]` (centres unmarked) [Example 9(c), Disodium Salt of the Gadolinium Complex of 3,6,9-Triaza-3,6,9-tris(carboxymethyl)-4-(4-butoxybenzyl)undecanedioic Acid], the T1 relaxation in series [1] (unit printed without slash) is listed as 5.80±0.26 1mmol·sec; in series [2] (unit printed without slash), 14.20±0.98 1mmol·sec. In series [3] (after 60 minutes), the “enhancement of the liver” value was “marked enhancement of the liver”.

With `O=C([O-])CN(CCN(CC(=O)[O-])CC(Cc1ccc(OCc2ccccc2)cc1)N(CC(=O)[O-])CC(=O)[O-])CC(=O)[O-].[Gd+3].[Na+].[Na+]` (centres unmarked) [Example 10(c), Disodium Salt of the Gadolinium Complex of 3,6,9-Triaza-3,6,9-tris(carboxymethyl)-4-(4-benzyloxybenzyl)undecanedioic Acid], the T1 relaxation is 5.81 ± 0.11 mmol⁻¹ s⁻¹ in series [1] and 16.35 ± 1.01 mmol⁻¹ s⁻¹ in series [2]. For the same molecule, the “enhancement of the liver” value in series [3] (after 60 minutes) was “marked enhancement of the liver”. Further, in series [3] (animal 3, osteogenic sarcoma implanted three weeks previously, 60 minutes), the “visibility of the tumor” value is “clearly visible”. Also, in series [3] (animal 3, osteogenic sarcoma, 60 minutes), the “absorption of the contrast medium by the tumor” value was “not absorbed the contrast medium at all, or only to a lesser proportion”. The “enhancement of the stomach” value in series [3] is reported as “most strongly”.

In series [1], `COc1ccc(CC(CN(CCN(CC(=O)[O-])CC(=O)[O-])CC(=O)[O-])N(CC(=O)[O-])CC(=O)[O-])cc1.[Gd+3].[Na+].[Na+]` (centres unmarked) [Example 1(c) disodium salt, Gadolinium Complex of 3,6,9-Triaza-3,6,9-tris-(carboxymethyl)-4-(4-methoxybenzyl)undecanedioic Acid] yielded a T1 relaxation of 4.54 ± 0.13 mmol⁻¹ s⁻¹. In series [2], the T1 relaxation was 6.89 ± 0.17 mmol⁻¹ s⁻¹. Also, in series [4] (45 minutes after injection), the “increase in contrast in the stomach” value was “strong increase in contrast”. Moreover, in series [4] (60 minutes after injection), the “contrasting of the intestine” value is reported as “contrasting of the intestine can likewise be observed”, the “contrasting of the renal pelvis” value was “striking”, the “visualization of the stomach” value was “good visualization” and the “visualization of the urinary bladder” value is “good visualization”. Also, the “visualization of the tumor” value in series [4] (60 minutes after injection, Brown Pearce tumor in the thigh) is “good visualization”. The “contrasting of the renal pelvis” value in series [4] (65 minutes after injection, somewhat different layer) is reported as “even more improved”. The “contrast enhancement in the zone of the liver” value in series [4] (180 minutes after injection, axial scan) is “contrast enhancement is likewise clearly recognizable”. The “contrast enhancement in the urinary bladder” value in series [4] (one minute after administration) is recorded as “first enhancement is already apparent”.

Turning to “Gadolinium Complex of 3,6,9-Triaza-3,6,9-tris-(carboxymethyl)-4-benzylundecanedioic Acid [Example 4(d)]”, the T1 relaxation was determined as 4.54 ± 0.13 mmol⁻¹ s⁻¹ in series [1] and 6.89 ± 0.17 mmol⁻¹ s⁻¹ in series [2].

On to `CNC[C@H](O)[C@@H](O)[C@H](O)[C@H](O)CO.CNC[C@H](O)[C@@H](O)[C@H](O)[C@H](O)CO.O=C([O-])CN(CCN(CC(=O)[O-])CC(=O)O)CCN(CC(=O)[O-])CC(=O)O.[Gd+3]` [Magnevist, dimeglumine salt of Gd DTPA [gadolinium(III)complex of diethylenetriaminepentaacetic acid]], for which the “enhancement of the liver (comparison)” value in series [5] is on record as “cannot be observed”.

Take `CCOc1ccc(CC(CN(CCN(CC(=O)[O-])CC(=O)[O-])CC(=O)[O-])N(CC(=O)[O-])CC(=O)[O-])cc1.[Gd+3].[Na+].[Na+]` (centres unmarked) [Example 8(c), Disodium Salt of the Gadolinium Complex of 3,6,9-Triaza-3,6,9-tris(carboxymethyl)-4-(4-ethoxybenzyl)undecanedioic Acid]: the T1 relaxation stood at 5.33 ± 0.13 mmol⁻¹ s⁻¹ in series [1] and 8.69 ± 0.53 mmol⁻¹ s⁻¹ in series [2]. For the same molecule, the “enhancement of the liver” value in series [3] (after 90 minutes) is reported as “marked enhancement of the liver”. Further, in series [3], the “enhancement of the stomach” value is listed as “least”.

Regarding “Gadolinium Complex of 3,6,9-Triaza-3,6,9-tris-(carboxymethyl)-4-[4-(4-methoxybenzyloxy)benzyl]-undecanedioic Acid [Example 3(c)]”, the T1 relaxation came to 4.23 ± 0.16 mmol⁻¹ s⁻¹ in series [1] and 6.99 ± 0.13 mmol⁻¹ s⁻¹ in series [2].

For the molecule “Gadolinium Complex of 3,6,9-Triaza-3,6,9-tris-(carboxymethyl)-4-(4-carboxymethoxybenzyl)-undecanedioic Acid [Example 6(c)]”, the T1 relaxation in series [1] is 5.00 ± 0.01 mmol⁻¹ s⁻¹; in series [2], 7.10 ± 0.08 mmol⁻¹ s⁻¹.

Turning to “Gadolinium Complex of 3,6,9-Triaza-3,6,9-tris-(carboxymethyl)-5-(4-methoxybenzyl)undecanedioic Acid [Example 2(c)]”, the T1 relaxation in series [1] worked out at 4.17 ± 0.14 mmol⁻¹ s⁻¹; in series [2] it was 6.61 ± 0.18 mmol⁻¹ s⁻¹.
